Source: patent US20180002319A1, “MACROCYCLIC PICOLINAMIDE COMPOUNDS WITH FUNGICIDAL ACTIVITY” (DOW AGROSCIENCES LLC, priority 2014, published 2018)
Where two headings read alike, the source gives them in different places.

Assays:
[1] = tested on: Zymoseptoria tritici; test: Leaf Blotch of Wheat (SEPTTR) fungicidal activity; type: in vivo; conditions: High Volume application, 100 ppm, wheat leaf blotch
In short: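 Wheat seedlings (Yuma, first leaf emerged) were sprayed to run-off with compound in acetone/water containing Triton X-100 and inoculated with Z. tritici spores before or after treatment. Percent disease control comes from 0–100% severity on treated versus untreated plants.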

[2] = tested on: Puccinia triticina; test: Wheat Brown Rust (PUCCRT) fungicidal activity; type: in vivo; conditions: High Volume application, 100 ppm
In short: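 Yuma wheat seedlings at first-leaf stage sprayed to run-off with acetone/water (Triton X-100) solutions, inoculated with P. triticina spores before or after treatment. Overnight dark dew at 22° C, then greenhouse at 24° C; percent disease control from severity versus untreated plants.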

[3] = 24 h, 1 day protectant, read-out: SEPTTR disease control, 1DP (1 Day Protectant)
[4] = 72 h, 3 day curative, read-out: SEPTTR disease control, 3DC (3 Day Curative)
[5] = 24 h, 1 day protectant, read-out: PUCCRT disease control, 1DP (1 Day Protectant)
[6] = 72 h, 3 day curative, read-out: PUCCRT disease control, 3DC (3 Day Curative)

Row | Compound | pest or weed control at 100 ppm [1, 3] [%] | pest or weed control at 100 ppm [1, 4] [%] | pest or weed control at 100 ppm [2, 5] [%] | pest or weed control at 100 ppm [2, 6] [%]
1 | COc1ccnc(C(=O)N[C@H]2CCCC[C@@H]3OC(C)(C)O[C@H]3[C@H](C)OC2=O)c1O [Compound 104] | < 80 | < 80 | > 80 | > 80
2 | COc1ccc(CO[C@H]2[C@H](C)OC(=O)[C@@H](NC(=O)c3nccc(OC)c3O)CCOC[C@@H]2OCc2ccc(OC)cc2)cc1 [Compound 106] | > 80 | < 80 | > 80 | –
3 | COc1ccnc(C(=O)N[C@H]2CCCC[C@H](OC)[C@@H](OC3CCCC3)[C@H](C)OC2=O)c1O [Compound 107] | > 80 | < 80 | > 80 | > 80
4 | COc1ccnc(C(=O)N[C@H]2CCCC[C@H](OC3CCCC3)[C@@H](OC)[C@H](C)OC2=O)c1O [Compound 108] | < 80 | < 80 | < 80 | > 80
5 | COc1ccnc(C(=O)N[C@H]2CCCC[C@H](Oc3ccccc3)[C@@H](OC3CCCC3)[C@H](C)OC2=O)c1O [Compound 109] | > 80 | < 80 | > 80 | < 80
6 | COc1ccnc(C(=O)N[C@H]2CCOC[C@H](Oc3ccccc3)[C@@H](Oc3ccccc3)[C@H](C)OC2=O)c1O [Compound 110] | > 80 | – | > 80 | > 80
7 | CCCOC(=O)O[C@H]1CCCC[C@H](NC(=O)c2nccc(OC)c2O)C(=O)O[C@@H](C)[C@@H]1OCC(C)C [Compound 111] | < 80 | > 80 | < 80 | < 80
8 | COc1ccnc(C(=O)N[C@H]2COCCC[C@@H](OCC(C)C)[C@H](C)OC2=O)c1O [Compound 112] | < 80 | < 80 | < 80 | < 80
9 | COc1ccnc(C(=O)N[C@H]2CCOC[C@H](OC)[C@@H](Oc3ccccc3)[C@H](C)OC2=O)c1O [Compound 113] | > 80 | > 80 | > 80 | > 80
10 | CCCO[C@H]1COCC[C@H](NC(=O)c2nccc(OC)c2O)C(=O)O[C@@H](C)[C@@H]1Oc1ccccc1 [Compound 114] | > 80 | > 80 | > 80 | > 80
11 | COc1ccnc(C(=O)N[C@H]2CCOC[C@H](OCC(C)C)[C@@H](OCC(C)C)[C@H](C)OC2=O)c1O [Compound 116] | – | < 80 | < 80 | < 80
12 | COc1ccnc(C(=O)N[C@H]2CCOC[C@H](OC(=O)C(C)C)[C@@H](Oc3ccccc3)[C@H](C)OC2=O)c1O [Compound 117] | > 80 | < 80 | < 80 | –
13 | COc1ccnc(C(=O)N[C@H]2CCOC[C@H](OCC(C)C)[C@@H](Oc3ccccc3)[C@H](C)OC2=O)c1O [Compound 118] | > 80 | – | > 80 | < 80
14 | C[C@@H]1OC(=O)[C@@H](NC(=O)c2ncccc2O)CCCC[C@H](CC2CCCC2)[C@H]1Oc1ccccc1 [Compound 120] | < 80 | > 80 | > 80 | –
15 | COc1ccnc(C(=O)N[C@H]2CCCC[C@H](CC3CCCC3)[C@@H](Oc3ccccc3)[C@H](C)OC2=O)c1O [Compound 121] | < 80 | > 80 | < 80 | –
16 | C=CCO[C@@H]1[C@@H](CC2CCCC2)CCCC[C@H](NC(=O)c2nccc(OC)c2O)C(=O)O[C@H]1C [Compound 122] | < 80 | < 80 | < 80 | –
17 | COc1ccnc(C(=O)N[C@H]2CCCC[C@H](CC3CCCC3)[C@@H](OC(=O)C(C)C)[C@H](C)OC2=O)c1O [Compound 123] | – | < 80 | < 80 | –
18 | CCCO[C@@H]1[C@@H](CC2CCCC2)CCCC[C@H](NC(=O)c2nccc(OC)c2O)C(=O)O[C@H]1C [Compound 124] | < 80 | < 80 | < 80 | < 80
